Assay results published in US10633389B2, “CARM1 inhibitors and uses thereof” (Epizyme, Inc., priority 2013, dated 2020).

How the values were obtained:
human CARM1 (PRMT4) = human CARM1 (PRMT4) (Homo sapiens (Human), UniProt Q86X55); assay: CARM1 enzyme assay on peptide substrate (3H-SAM Flashplate); settings: Biochemical potencies, read-out: Biochem IC50
Text: S-adenosylmethionine (SAM), S-adenosylhomocysteine (SAH), bicine, Tween20, dimethylsulfoxide (DMSO), bovine skin gelatin (BSG), sodium butyrate and Tris(2-carboxyethyl)phosphine hydrochloride solution (TCEP) were purchased from Sigma-Aldrich at the highest level of purity possible. ^3H-SAM was purchase from American Radiolabeled Chemicals with a specific activity of 80 Ci/mmol. 384-well streptavidin Flashplates were purchased from PerkinElmer.
Peptide representative of human histone H3 residues 16-30 was synthesized with an N-terminal linker-affinity tag motif and a C-terminal amide cap by 21st Century Biochemicals. […] The sequence was Biot-Ahx-[…]-amide and contained a monomethylated arginine at position 26 (SEQ ID NO.:1).
The gene sequence encoding isoform 1 containing a deletion of amino acids 539-561 was amplified subsequently and subcloned into pFastBacMam (Viva Biotech).
Recombinant baculovirus were generated according to Bac-to-Bac kit instructions (Life Technologies). Protein over-expression was accomplished by infecting exponentially growing HEK 293F cell culture at 1.3×10^6 cell/ml with virus (MOI=10) in the presence of 8 mM sodium butyrate. Infections were carried out at 37° C. for 48 hours, harvested by centrifugation, and stored at −80° C. for purification.
Expressed full-length human Flag- and His-tagged CARM1 protein was purified from cell paste by anti-flag M2 affinity chromatography with resin equilibrated with buffer containing 20 mM Tris, 150 mM NaC, 5% glycerol, pH 7.8. Column was washed with 500 mM NaCl in buffer A and Flag-CARM1-His was eluted with 200 ug/ml FLAG peptide in buffer A. Pooled fractions were dialyzed in 20 mM Tris, 150 mM NaCl, 5% glycerol and 1 mM DTT, pH 7.8.
The assays were all performed in a buffer consisting of 20 mM Bicine (pH=7.6), 1 mM TCEP, 0.005% BSG, and 0.002% Tween 20, prepared on the day of use. Compounds in 100% DMSO (1 ul) were spotted into a polypropylene 384-well V-bottom plates (Greiner) using a Platemate Plus outfitted with a 384-channel head (Thermo Scientific). DMSO (1 ul) was added to Columns 11, 12, 23, 24, rows A-H for the maximum signal control and 1 ul of SAH, a known product and inhibitor of CARM1, was added to columns 11, 12, 23, 24, rows I-P for the minimum signal control. A cocktail (40 ul) containing the CARM1 enzyme was added by Multidrop Combi (Thermo-Fisher). The compounds were allowed to incubate with CARM1 for 30 min at room temperature, then a cocktail (10 ul) containing ^3H-SAM and peptide was added to initiate the reaction (final volume=51 ul). The final concentrations of the components were as follows: CARM1 was 0.25 nM, ^3H-SAM was 30 nM, peptide was 250 nM, SAH in the minimum signal control wells was 1 mM, and the DMSO concentration was 2%. The assays were stopped by the addition of non-radiolabeled SAM (10 ul) to a final concentration of 300 uM, which dilutes the ^3H-SAM to a level where its incorporation into the peptide substrate is no longer detectable. 50 ul of the reaction in the 384-well polypropylene plate was then transferred to a 384-well Flashplate and the biotinylated peptides were allowed to bind to the streptavidin surface for at least 1 hour before being washed once with 0.1% Tween20 in a Biotek ELx405 plate washer. The plates were then read in a PerkinElmer TopCount plate reader to measure the quantity of ^3H-labeled peptide bound to the Flashplate surface, measured as disintegrations per minute (dpm) or alternatively, referred to as counts per minute (cpm).
The Hill Coefficient normally allowed to float but may also be fixed at 1 in a 3-parameter fit.

[1] = system: asymmetric di-methyl PABP1 in RKO cells; assay: RKO methylation assay, In Cell Western (ICW) for asymmetric di-methyl PABP1; type: cell-based; settings: Homo sapiens, RKO, Cellular potencies, ICW PABP1me2a
Outline: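 RKO cells treated with compound for 48 h at 37 °C, then fixed, permeabilized and immunostained for asymmetric di-methyl PABP1, with DRAQ5 as DNA stain. Infrared 700/800 nm signal ratio normalized to DMSO and 20 μM reference-compound controls; IC50 from triplicate wells.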

human CARM1 (PRMT4), sequence (Q86X55 other isoform, or with tags, fused parts or gaps isoform Q86X55-1): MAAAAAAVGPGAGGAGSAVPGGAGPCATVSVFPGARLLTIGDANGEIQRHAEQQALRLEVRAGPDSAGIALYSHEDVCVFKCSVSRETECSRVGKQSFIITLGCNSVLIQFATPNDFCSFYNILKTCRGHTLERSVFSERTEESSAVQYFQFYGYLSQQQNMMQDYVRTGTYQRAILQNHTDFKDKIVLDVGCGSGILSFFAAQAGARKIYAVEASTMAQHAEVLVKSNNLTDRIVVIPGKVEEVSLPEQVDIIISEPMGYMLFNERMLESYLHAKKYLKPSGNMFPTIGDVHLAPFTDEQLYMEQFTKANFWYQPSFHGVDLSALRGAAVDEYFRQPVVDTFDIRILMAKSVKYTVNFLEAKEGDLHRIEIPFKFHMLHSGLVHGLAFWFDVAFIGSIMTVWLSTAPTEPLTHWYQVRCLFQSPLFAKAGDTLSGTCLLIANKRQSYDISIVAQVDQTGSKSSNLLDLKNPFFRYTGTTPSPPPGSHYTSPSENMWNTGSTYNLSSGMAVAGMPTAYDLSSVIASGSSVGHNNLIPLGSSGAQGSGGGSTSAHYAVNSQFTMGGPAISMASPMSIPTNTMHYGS

SMILES	IC50 (human CARM1 (PRMT4))	IC50 [1]
CNCC(O)COc1cccc(-c2nc(NCC3(CCl)CCOCC3)cc(N(C)C3CCOCC3)n2)c1 (centres unmarked) [Example 584-1a]	0.1 to 1 µM	10 to 20 µM
CCN(c1nc(-c2cccc(OCC(O)CNC)c2)nc(N2CCOCC2)c1C)[C@@H]1CCOC1 (some centres unmarked) [Example 375-1a]	1 to 3 µM	10 to 20 µM
CNCC(O)COc1cccc(-c2nc(N3CCN(CC(F)(F)F)[C@@H](C)C3)cc(N(C)C3CCOCC3)n2)c1 (some centres unmarked) [Example 594-1a]	0.1 to 1 µM	10 to 20 µM
CNCC(O)COc1cccc(-c2nc(N3CCN(CCF)CC3)cc(N(C)C3CCOCC3)n2)c1 (centres unmarked) [Example 596-1a]	0.1 to 1 µM	10 to 20 µM
CNCC(O)COc1cccc(-c2nc(N[C@@H]3CC[C@H](C(=O)N4CCOCC4)C3)c(C)c(N3CCOCC3)n2)c1 (some centres unmarked) [Example 681-1a]	1 to 3 µM	≥ 20 µM
CNCC(O)COc1cccc(-c2nc(N3CCC4(CCOC4)CC3)cc(N(C)C3CCOCC3)n2)c1 (centres unmarked) [Example 582-1a]	0.1 to 1 µM	10 to 20 µM
CNCC(O)COc1cccc(-c2nc(N3CCN(CC(F)F)CC3)cc(N(C)C3CCOCC3)n2)c1 (centres unmarked) [Example 518-1a]	0.1 to 1 µM	5 to 10 µM
CNCC(O)COc1cccc(-c2nc(N[C@@H]3CCOC3)c(C)c(N3CCN(C(C)=O)CC34CC4)n2)c1 (some centres unmarked) [Example 438-1a]	0.1 to 1 µM	10 to 20 µM
CNCC(O)COc1cccc(-c2nc(NCCCN3CCCCCC3=O)cc(N3CCOCC3)n2)c1 (centres unmarked) [Example 685-1a]	1 to 3 µM	≥ 20 µM
CNCC(O)COc1cccc(-c2nc(N3CCN(CC(F)(F)F)CC3)cc(N(C)C3CCOCC3)n2)c1 (centres unmarked) [Example 586-1a]	0.1 to 1 µM	10 to 20 µM
CNCC(O)COc1cccc(-c2nc(-c3cnn(CC(C)C)c3)cc(N(CCOC)CCOC)n2)c1 (centres unmarked) [Example 631-1a]	1 to 3 µM	≥ 20 µM
NCC(O)COc1cccc(-c2cc(N3CCOCC3)nc(N3CCOCC3)n2)c1 (centres unmarked) [Example 7-2]	0.1 to 1 µM	
CNCC(O)COc1cccc(-c2cc(C3CCOCC3)nc(N[C@H]3CCOC3)n2)c1 (some centres unmarked) [Example 10-2]	0.1 to 1 µM	

Next, values leading:

IC50 (human CARM1 (PRMT4))	IC50 [1]	SMILES
0.1 to 1 µM	10 to 20 µM	CNCC(O)COc1cccc(-c2nc(N[C@@H]3CCOC3)c(C)c(N3CCCC3c3nc(C)no3)n2)c1 (some centres unmarked) [Example 472-1a]
0.1 to 1 µM	10 to 20 µM	CNCC(O)COc1cccc(-c2nc(C(=O)NCC3CCOCC3)cc(-c3c(C)noc3C)n2)c1 (centres unmarked) [Example 65-1a]
0.1 to 1 µM	10 to 20 µM	CNCC(O)COc1cccc(-c2nc(-c3nccn3C)cc(N(C)C3CCOCC3)n2)c1 (centres unmarked) [Example 583-1a]
0.1 to 1 µM	≥ 20 µM	CNCC(O)COc1cccc(-c2nc(NC3CCOCC3)cc(-c3ccc(C(F)(F)F)nc3)n2)c1 (centres unmarked) [Example 654-1a]
0.1 to 1 µM	≥ 20 µM	CNCC(O)COc1cccc(-c2nc(NCCOC)cc(-c3cncnc3)n2)c1 (centres unmarked) [Example 659-1a]
0.1 to 1 µM	10 to 20 µM	CNCC(O)COc1cccc(-c2nc(N[C@@H]3CCOC3)c(C)c(N3CCNC(=O)C3)n2)c1 (some centres unmarked) [Example 380-1a]
0.1 to 1 µM	10 to 20 µM	CNCC(O)COc1cccc(-c2nc(N[C@H]3C[C@H](O)C3)cc(N(C)C3CCOCC3)n2)c1 (some centres unmarked) [Example 590-1a]
0.1 to 1 µM	≥ 20 µM	CNCC(O)COc1cccc(-c2nc(NC3CCOC(C)C3)c(C)c(-c3c(C)noc3C)n2)c1Cl (centres unmarked) [Example 80-3]
0.1 to 1 µM	≥ 20 µM	CNCC(O)COc1cccc(-c2nc(NCCOC)cc(-c3ccnc(OC)c3)n2)c1 (centres unmarked) [Example 638-1a]
0.1 to 1 µM	10 to 20 µM	CNCC(O)COc1cccc(-c2nc(N(C)C3CCOCC3)c(C)c(C(C)(C)O)n2)c1 (centres unmarked) [Example 545-1a]
0.1 to 1 µM		CNCC(O)COc1cccc(-c2nc(NC3CCOCC3)cc(N(C)C)n2)c1 (centres unmarked) [Example 8-1]
0.1 to 1 µM		CNCC(O)COc1cccc(-c2nc(NC3CCOC3=O)cc(-c3c(C)noc3C)n2)c1 (centres unmarked) [Example 24-1a]
	< 5 µM	CNC[C@@H](O)COc1cccc(-c2nc(NCC3CCOCC3)c(C)c(-c3c(C)noc3C)n2)c1 [Example 183-1a]
